# Laboratory results as given in patent publication US20230043678A1, “USE OF 5-METHYLTETRAHYDROFOLATE” (priority 2019, published 2023).
# Like-named read-outs stand apart in the source and are kept apart here.
# Legend:
# [1] = test system: fetal rat heart; experiment: Effects of homocysteine on fetal rats, heart slices (Example 7); type: in vivo, SD rats
# Method: In order to investigate an effect of homocysteine on the fetal heart, SD rats were selected, male and female rats were mated in a cage at a ratio of 1:1 overnight, a vaginal plug was checked the next morning, a day when the vaginal plug was found was regarded as day 0 of pregnancy, and pregnant mice were fed alone. A 1% homocysteine (HCY) solution was used, an injection volume was calculated according to an injection volume of 1 ml/100 g, a dose was (100 mg/kg/d), on the seventh day of pregnancy, the pregnant mice were intraperitoneally injected once a day until the 17th day of pregnancy and injected once on the 19th day of pregnancy, no fluid was withdrawn during each injection, the pregnant mice were subjected to chloral hydrate anesthesia on the 20th day of pregnancy, and a fetus was obtained by cesarean section. High-dose HCY model pregnant mice were investigated by the same method as above, the dose was 200 mg/kg/d and the other conditions were the same. Fetal rats were dissected, the heart was taken and sliced for observation, and the results were as follows.
# [2] = test system: transcription factors (Nkx2.5, amhc, vmhc, hand2, has2, mef2a, mef2c, bmp2b, ephrinB2, ephB4) in zebrafish embryos; experiment: qRT-PCR expression of transcription factors during development of zebrafish embryos (Example 4); type: in vivo; conditions: 8 mM L-5-MTHF-Ca, 24 and 48 hpf
# Method: In order to explore an effect of folic acid on epigenetics during development of the zebrafish embryos, the zebrafish embryos at different developmental stages were collected for testing. […] A fluorescent dye SYBR Green was used in the qRT-PCR experiment. The qRT-PCR was conducted according to the instructions of an SYBR Green qPCR Master Mix kit and a detection was conducted on an ABI (HT 7900) PCR instrument. […] An expression of β-actin was used as an internal reference and relative expression levels of other genes were calculated by a ΔΔCt method.
# [3] = test system: zebrafish embryos
# Method: Each experiment was conducted in triplicate. Zebrafish embryos were administrated at 2 h post fertilization (2 hpf) and termination was conducted at 72 hpf. The number of deaths in each group was recorded at 8, 24, 48 and 72 hpf. No food was fed during a dosing period, and the dead embryos were cleaned up in time.
# [4] = test system: zebrafish embryos; remark: listed apart in the source
# Method: (§1) Transgenic zebrafish (fli-1:EGFP) were from the Model Animal Research Center of Nanjing University. Adult zebrafish aged less than 1 were used for experiment and fed at a water pH value of 7±0.2, a temperature around 28° C. and a ratio of illumination to darkness of 14 h:10 h, and with Artemia salina eggs twice a day. Three zebrafish, one female, two males, were placed in a spawning box the night before and eggs were collected the next morning. Fish eggs were placed in an embryo culture medium (prepared with 0.2 g/L of sea salt) and cultured at 28° C. […] Dead embryos were cleaned up in time. A phenotype of malformation was observed, the number of all abnormal zebrafish where the malformation was present was recorded and a malformation rate and a rescue rate of each group were calculated. Morphological defects, a heart rate, cardiac morphology and other indicators were observed and evaluated by an SMZ745T inverted stereomicroscope.
# [5] = test system: zebrafish embryos; conditions: 6 mM FA + 10 mM L-5-MTHF-Ca
# Method: Transgenic zebrafish (fli-1:EGFP) were from the Model Animal Research Center of Nanjing University. Adult zebrafish aged less than 1 were used for experiment and fed at a water pH value of 7±0.2, a temperature around 28° C. and a ratio of illumination to darkness of 14 h:10 h, and with Artemia salina eggs twice a day. Three zebrafish, one female, two males, were placed in a spawning box the night before and eggs were collected the next morning. Fish eggs were placed in an embryo culture medium (prepared with 0.2 g/L of sea salt) and cultured at 28° C. […] Dead embryos were cleaned up in time. Each experiment was conducted in triplicate. […] A phenotype of malformation was observed, the number of all abnormal zebrafish where the malformation was present was recorded and a malformation rate and a rescue rate of each group were calculated. Morphological defects, a heart rate, cardiac morphology and other indicators were observed and evaluated by an SMZ745T inverted stereomicroscope.
# [6] = test system: heart of fetal mice; experiment: Effects of folic acid and 5-methyltetrahydrofolate on heart development of fetal/neonatal mice, histology (Example 10)
# Method: 75 7-week-old female C57BL/6J mice and 25 8-week-old male C57BL/6J mice were provided by Shanghai Lingchang Biotechnology Co., Ltd. with a certificate number of SCXK (Shanghai) 2018-0003. […] The female mice were randomly divided into 5 groups according to body weight: a solvent control group, a folic acid (151.66 μg/kg) group, a folic acid (303.32 μg/kg) group, a calcium 5-methyltetrahydrofolate (converted to folic acid, 151.66 μg/kg) group and a calcium 5-methyl tetrahydrofolate (converted to folic acid, 303.32 μg/kg) group. 1.1275 unit mass of the calcium 5-methyltetrahydrofolate equaled to 1 unit mass of the folic acid.
# 15 mice were in each group and numbered by a toe clipping method. The mice were intragastrically administrated once a day on the second day after grouping. One week after the pre-administration, male and female mice were caged at a ratio of […], a vaginal plug was observed every day from the next day, and a day when the vaginal plug was seen was recorded as day 0.5 of pregnancy. After 14 days of caging, the female mice stopped the administration, the male mice were removed, and the pregnant female mice were fed alone until litter.
# After the detection, thoracic and abdominal cavities of the mice were dissected, cardiac morphology and beating were observed under a stereoscopic microscope (SMZ168, Motic, Xiamen, Fujian, China), and photographs and video recordings were taken (Motic Image Plus 3.0, Motic, Xiamen, Fujian, China). The mice were sacrificed and the hearts, the livers, the kidneys and the lungs were harvested. The hearts and the livers of the neonatal mice were selected from each group and fixed with 4% paraformaldehyde, the fixed hearts and livers were embedded in paraffin, the embedded hearts and livers were sliced and the slices were stained with H&E. A half of the other tissues were immersed in RNA later for fixation and the other half were directly immersed in liquid nitrogen and frozen for a subsequent experiment.
# 1-day-old neonatal mice were sacrificed, the hearts were taken and fixed with 4% paraformaldehyde, the fixed hearts were embedded in paraffin, the embedded hearts were sliced, the slices were stained with H&E and pictures were taken under a normal microscope.
# [7] = test system: zebrafish embryos; remark: listed apart in the source
# Method: Transgenic zebrafish (fli-1:EGFP) were from the Model Animal Research Center of Nanjing University. Adult zebrafish aged less than 1 year were used for experiment and fed at a water pH value of 7±0.2, a temperature around 28° C. and a ratio of illumination to darkness of 14 h:10 h, and with Artemia salina eggs twice a day. Three zebrafish, one female, two males, were placed in a spawning box the night before and eggs were collected the next morning. Fish eggs were placed in an embryo culture medium (prepared with 0.2 g/L of sea salt) and cultured at 28° C.
# Zebrafish embryos were cultured in 24-well plates with 10 embryos per well at 2 hpf in a dosing manner, drug solutions of the above concentrations in the table were separately added, termination was conducted at 8 hpf, and the embryos were washed and transferred to an egg solution for continuous culture to 72 hpf. Dead embryos were cleaned up in time. Each experiment was conducted in triplicate.
# A phenotype of malformation was observed, the number of all abnormal zebrafish where the malformation was present was recorded and a malformation rate and a rescue rate of each group were calculated. Morphological defects, a heart rate, cardiac morphology and other indicators were observed and evaluated by an SMZ745T inverted stereomicroscope.
# [8] = test system: zebrafish embryos; conditions: 30 mM HCHO + 10 mM L-5-MTHF-Ca
# [9] = test system: zebrafish embryos; conditions: in vivo
# Method: A table was listed below for details.
# 5-Selected concentrations of methyltetrahydrofolate in the experiment were recorded in the table.
# [10] = test system: zebrafish embryos; experiment: Teratogenic effect of folic acid on zebrafish embryos (Example 3)
# Method: as §1
# [11] = Group D: calcium 5-methyltetrahydrofolate (converted to folic acid, 151.66 μg/kg) intragastric
# [12] = Group E: calcium 5-methyltetrahydrofolate (converted to folic acid, 303.32 μg/kg) intragastric
molecule,measurement,setting,value
"N[C@@H](CCS)C(=O)O [HCY, homocysteine]",fetal rat heart histology,[1]; high-dose HCY 200 mg/kg/d intraperitoneal to pregnant rats,led to red staining of muscle cytoplasm of the fetal rats
same,fetal rat heart histology,[1]; low-dose HCY 100 mg/kg/d intraperitoneal to pregnant rats,led to widening of myocardial trabeculae in fetal rats and atria was filled with red blood cells
Calcium 5-Methyltetrahydrofolate [L-5-MTHF-Ca],expressions of the various genes vs normal control,[2],did not affect the expressions of the various genes
same,embryo survival rate,"[3]; 10 mM L-5-MTHF-Ca, dosed 2 hpf to 72 hpf",did not affect an embryo survival rate
same,heart rate of zebrafish embryos,"[3]; 10 mM, 48 hpf, vs control group",no difference in the heart rate
same,heart shape and lower intestinal network blood vessels,"[3]; 10 mM, 72 hpf",the heart in each group had a normal shape and the lower intestinal network blood vessels developed normally
same,body length of zebrafish embryos,"[3]; 10 mM, 72 hpf, vs control group",no difference
same,"pericardium edema and 10 s heart rate (48 hpf), body length (72 hpf), rescue",[4]; 1.5 mM MTX + 10 mM L-5-MTHF-Ca,"could rescue malformed phenotypes of the pericardium edema, the bradycardia and the shortened body length"
same,rescue of embryonic development malformations,[4]; 1.5 mM MTX + 10 mM L-5-MTHF-Ca,could rescue embryonic development malformations induced by 1.5 mM MTX
same,"survival rate of embryos, rescue",[4]; 1.5 mM MTX + 10 mM L-5-MTHF-Ca,no significant difference from that of a control group
same,Malformation rate,[4]; 1.5 mM MTX after adding L-5-MTHF-Ca (10 mM),10%
same,"10 s heart rate (48 hpf) and body length (72 hpf), rescue",[5],could rescue malformed phenotypes of the bradycardia and the shortened body length
same,"survival rate of embryos, rescue",[5],can rescue an effect of the 6 mM FA on a survival rate of the embryos
same,embryo development,[5]; 8 hpf,delayed development of the zebrafish embryos
same,embryo phenotype,[5]; 24 hpf,alleviated the malformation
same,embryo phenotype,[5]; 48 hpf,"led to pericardium edema, dyspigmentation, and intersegmental vascular hypoplasia of zebrafish"
same,"pericardium edema, rescue",[5]; 48 hpf,could not rescue the pericardium edema
same,embryo phenotype,[5]; 72 hpf,led to developmental disorders of lower intestinal network blood vessels of the zebrafish
same,congenital heart disease in fetal mice,[6]; 5-methyltetrahydrofolate group,no congenital heart disease is found
same,Development delay,[6]; [11],0
same,Malformation cases,[6]; [11],0
same,Sparse myocardial trabeculae,[6]; [11],0
same,Ventricular defects/septal defects,[6]; [11],0
same,Development delay,[6]; [12],0
same,Malformation cases,[6]; [12],0
same,Sparse myocardial trabeculae,[6]; [12],0
same,Ventricular defects/septal defects,[6]; [12],0
same,heart slices (H&E) of 1-day-old neonatal mice,[6]; low-dose and high-dose methyltetrahydrofolate groups,had intact myocardium
same,"rate of pericardium edema, rescue","[7]; 0.6% EtOH + 10 mM L-5-MTHF-Ca, 48 hpf",could reduce a rate of pericardium edema
same,"heart rate, rescue","[7]; 0.9% and […] EtOH + 10 mM L-5-MTHF-Ca, 48 hpf",could relieve bradycardia
same,"survival rate, rescue",[7]; […] EtOH + 10 mM L-5-MTHF-Ca,could rescue the survival rate
same,"pericardium edema, rescue","[7]; […] EtOH + 10 mM L-5-MTHF-Ca, 48 hpf",had no effect on relieving pericardium edema
same,"lower intestinal network blood vessels, rescue","[7]; […] EtOH + 10 mM L-5-MTHF-Ca, 72 hpf",failed to ameliorate the defect
same,"body length, rescue",[7]; high concentration ([…]) of EtOH + 10 mM L-5-MTHF-Ca,relieve a shortened body length
same,"pericardium edema and heart rate (48 hpf), body length (72 hpf)",[8],"had no effect on the pericardium edema, the heart rate and the body length of the zebrafish"
same,"survival rate of embryos, rescue",[8],can rescue an effect of the 30 mM HCHO on a survival rate of the embryos
same,embryo development,[8]; 8 hpf,delayed development of the zebrafish embryos
same,heart shape and lower intestinal network blood vessels,[8]; 72 hpf,normal heart shape and normal development of lower intestinal network blood vessels
same,"10 s heart rate (48 hpf), body length and malformation (72 hpf), rescue",[9],"could rescue malformed phenotypes of the bradycardia, the shortened body length and abnormally curved bodies"
same,rescue of embryonic development malformations,[9],could rescue embryonic development malformations induced by 2 and 4 mM Pb(NO3)2
same,"survival rate of embryos, rescue",[9],did not rescue an effect of the 2 and 4 mM Pb(NO3)2 on a survival rate of the embryos
same,embryo phenotype,[9]; zebrafish,"did not lead to obvious embryonic development delay, malformation and death"
same,"pericardium edema and 10 s heart rate (48 hpf), body length (72 hpf), rescue",[9]; zebrafish,"could rescue malformed phenotypes of the pericardium edema, the bradycardia and the shortened body length of the zebrafish to a certain extent"
same,survival rate of zebrafish,"[10]; 10 mM L-5-MTHF-Ca in 20 mM NaHCO3, 2-72 hpf",did not affect the survival rate of zebrafish
same,embryo coverage,"[10]; 10 mM L-5-MTHF-Ca, 8 hpf",covered completely
same,heart shape and lower intestinal network blood vessels,"[10]; 10 mM L-5-MTHF-Ca, 72 hpf",normal heart shape and normal development of lower intestinal network blood vessels
